As usually defined, the solubility is the concentration that dissolves in the medium under given conditions. Usually MIC stands for the lowest concentration found to suppress growth. Low values mean inhibition by little substance, high ones a need for much substance. By IC50 is commonly meant the concentration at which inhibition is half-maximal.

Data set [1] can be described thus: Solubility in water at pH 7.2. In kind it is physicochemical.
Data set [2] has as its system Aspergillus fumigatus. In words: Antifungal activity against Aspergillus fumigatus IAM2034 infected in iv dosed ICR mouse assessed as protection against fungus-induced lethal infection dosed thrice at 48 hrs interval immediately following fungal challenge and measured on day 20 post infection by Litchfield -Wilcoxon method. In kind it is functional. To be noted: 480 h, time 20 day, read-out: PD50.

Data set [3] concerns Candida albicans. Briefly: Antifungal activity against Candida albicans A9540 infected in iv dosed ICR mouse assessed as protection against fungus-induced lethal infection dosed thrice at 48 hrs interval immediately following fungal challenge and measured on day 20 post infection by Litchfield -Wilcoxon method. Format: functional. To be noted: 480 h, time 20 day, read-out: PD50.

Data set [4] has as its system Candida albicans. In words: Antifungal activity against Candida albicans infected in mouse assessed as protection against fungus-induced lethal infection. Format: functional. To be noted: read-out: PD50.
For data set [5], the system named is Candida albicans. In words: Antifungal activity against Candida albicans 83-2-14 incubated for 24 hrs by broth microdilution method. Format: functional. (Broth dilution looks for growth in wells or tubes with falling amounts of substance.)
Data set [6] has as its system Candida albicans. In words: Antifungal activity against Candida albicans A9540 incubated for 24 hrs by broth microdilution method. In kind it is functional.
Data set [7] concerns Candida albicans. In words: Antifungal activity against Candida albicans ATCC 32354 incubated for 24 hrs by broth microdilution method. Format: functional.
Data set [8] deals with Candida albicans. Briefly: Antifungal activity against Candida albicans IAM 888 incubated for 24 hrs by broth microdilution method. Format: functional.
Data set [9] concerns Candida tropicalis. Briefly: Antifungal activity against Candida tropicalis IFO10241 incubated for 24 hrs by broth microdilution method. In kind it is functional.
Data set [10] deals with Candida tropicalis. In words: Antifungal activity against Candida tropicalis 85-5 incubated for 24 hrs by broth microdilution method. Format: functional.
In data set [11] the test system is Candida albicans. Briefly: Antifungal activity against Candida albicans ATCC 10261 incubated for 24 hrs by serial dilution method. Format: functional.
Data set [12] deals with Nakaseomyces glabratus. In words: Antifungal activity against Candida glabrata incubated for 24 hrs by serial dilution method. In kind it is functional.
Data set [13] relates to Debaryomyces hansenii. In words: Antifungal activity against Candida famata incubated for 24 hrs by serial dilution method. In kind it is functional.
The nature of data set [14]: Inhibition of Candida albicans glucosamine-6-phosphate synthase by Elson-Morgan method.
Data set [15] has as its system Vanrija humicola. In words: Antifungal activity against Candida humicola incubated for 24 hrs by serial dilution method. Format: functional.
For data set [16], the system named is Candida albicans. Briefly: Antifungal activity against Candida albicans ATCC 26278 incubated for 24 hrs by serial dilution method. Format: functional.
For data set [17], the system named is Candida albicans. Briefly: Antifungal activity against Candida albicans. Format: functional.
Data set [18] relates to Candida albicans. In words: Antifungal activity against Candida albicans MY2301 incubated for 24 hrs by liquid microdilution assay. Format: functional.
For data set [19], the system named is Cryptococcus neoformans. In words: Antifungal activity against Cryptococcus neoformans MY2061 incubated for 24 hrs by liquid microdilution assay. Format: functional.
Data set [20] relates to Nakaseomyces glabratus. In words: Antifungal activity against Candida glabrata CLY574 incubated for 24 hrs by liquid microdilution assay. In kind it is functional.
Data set [21] has as its system Cryptococcus neoformans. Briefly: Antifungal activity against Cryptococcus neoformans MY2062 incubated for 24 hrs by liquid microdilution assay. Format: functional.
Data set [22] has as its system Nakaseomyces glabratus. In words: Antifungal activity against Candida glabrata MY1381 incubated for 24 hrs by liquid microdilution assay. In kind it is functional.
Data set [23] concerns Meyerozyma guilliermondii. In words: Antifungal activity against Candida guilliermondii CLY308 incubated for 24 hrs by liquid microdilution assay. In kind it is functional.
The subject of data set [24] is Meyerozyma guilliermondii. Briefly: Antifungal activity against Candida guilliermondii CLY346 incubated for 24 hrs by liquid microdilution assay. Format: functional.
Data set [25] in a line: Inhibition of Candida albicans MY1055 1,3-beta-D-glucan synthase assessed as reduction in glucan synthesis by measuring decrease in incorporation of [14C]glucose preincubated for 30 mins followed by pulse-labelling with [U-14C]D-glucose for 30 mins by autoradiography.
Data set [26] relates to Aspergillus fumigatus. In words: Antifungal activity against Aspergillus fumigatus MF5668 assessed as inhibition of normal hyphal growth. Conditions: time 24 hrs, read-out: MEC. In kind it is functional.
In data set [27] the test system is Aspergillus flavus. Briefly: Antifungal activity against Aspergillus flavus MF383 incubated for 24 hrs by liquid microdilution assay. Format: functional.
The subject of data set [28] is Candida albicans. In words: Antifungal activity against Candida albicans MY1055 incubated for 24 hrs by liquid microdilution assay. Format: functional.

Molecules are shown by their SMILES. Converted amounts (≈) assume the structure as drawn.

`COc1cc(O)c2c(c1)C(=O)c1c(cc3c(c1O)-c1c(cc(C)c(C(=O)N[C@H](CO)C(=O)O)c1O)[C@H](O[C@@H]1O[C@H](C)[C@H](N(C)C)[C@H](O[C@@H]4OC[C@@H](O)[C@H](O)[C@H]4O)[C@H]1O)[C@H]3O)C2=O`: the solubility in data set [1] is more than 20 mg/mL. Moreover, the ED50 in [2] came to 23 mg/kg; in data set [3], 15 mg/kg; in data set [4], 50 mg/kg.

In the case of `CCC/C=C/C=C/C=C/C(=O)OC[C@H]1O[C@@H](O[C@H]2[C@H](OC(=O)/C=C/C=C/C[C@H](O)/C=C/C=C/C=C/CCC)[C@@H](O)[C@@]3(OCc4cc(O)cc(O)c43)O[C@@H]2CO)[C@H](O)[C@@H](O)[C@H]1O`, the MIC in data set [5], in data set [6], in data set [7], in data set [8], in data set [9] and in data set [10] was 0.1 µg/mL (≈ 0.117 µM) in each case.

On to `COP(=O)(OC)OC[C@@H](O)[C@@H](O)[C@H](O)[C@@H](N)CO`, for which the MIC in [11], in data set [12], in [13], in [15] and in [16] was 300 µg/mL (≈ 1040 µM) in each case. Further, in [14], the IC50 was 4.75 mM.

As to `CC(=O)O[C@@H]1C[C@]23C4=CC[C@@]5(C)[C@H](C(=O)O)[C@@](C)([C@H](C)C(C)C)CC[C@]5(C)[C@H]4CC[C@H]2[C@@](C)(COC3O)[C@H]1O[C@@H]1O[C@H](CO)[C@@H](O)[C@H](O)[C@H]1O` (stereo partly drawn) [ENFUMAFUNGIN], the MIC was 0.2 µg/mL (≈ 0.282 µM) in [17]; 0.5 µg/mL (≈ 0.705 µM) in data set [18]; more than 64 µg/mL in data set [19]; 1 µg/mL (≈ 1.41 µM) in data set [20]; more than 64 µg/mL in [21]; 1 µg/mL (≈ 1.41 µM) in data set [22]. Further, the MIC was 1 µg/mL (≈ 1.41 µM) in data set [23], 2 µg/mL (≈ 2.82 µM) in [24], not above 0.03 µg/mL in data set [27] and 0.25 µg/mL (≈ 0.353 µM) in data set [28]. Further, the IC50 in [25] was 0.05 µg/mL (≈ 0.0705 µM). The minimal effective concentration in data set [26] is not above 0.03 µg/mL.

The record behind these values is ChEMBL document CHEMBL4715849, “Recent Progress in the Discovery of Antifungal Agents Targeting the Cell Wall” (J Med Chem, 2020).
